Results: ChEMBL document CHEMBL1142563, “Isolation and structure of phakellistatin 14 from the Western Pacific marine sponge Phakellia sp” (2005)
Converted amounts (≈) assume the structure as drawn. Where a SMILES comes first, the peptide text is derived from it. [ ]: non-standard residue; d: D form. Met(O) = CS(=O)CC[C@H](N)C(=O)O

Test system: P388
Experiment: Cytotoxicity against mouse P388 cells
Type: functional
Conditions: read-out: ED50 (the source's name)

## CC[C@H](C)[C@@H]1NC(=O)[C@H](C)NC(=O)[C@H](CC[S+](C)[O-])NC(=O)[C@H](C)NC(=O)[C@H](CC(=O)OC)NC(=O)[C@H](Cc2ccccc2)NC(=O)[C@@H]2CCCN2C1=O (stereo partly specified) [PHAKELLISTATIN 14] (cyclo(AIPFD(OMe)A[Met(O)]))
  EC50: 5 µg/mL (≈ 6.44 µM)
